Where two headings read alike, the source gives them in different places.
Biological target: T1, human trace amine associated receptor 1 (hTAAR1) (Homo sapiens, UniProt Q96RJ0)
T1 construct: gene TAAR1; hTAAR1 with the first nine amino acids of the β2-adrenergic receptor added at N-terminus
T1 sequence (Q96RJ0 1-339): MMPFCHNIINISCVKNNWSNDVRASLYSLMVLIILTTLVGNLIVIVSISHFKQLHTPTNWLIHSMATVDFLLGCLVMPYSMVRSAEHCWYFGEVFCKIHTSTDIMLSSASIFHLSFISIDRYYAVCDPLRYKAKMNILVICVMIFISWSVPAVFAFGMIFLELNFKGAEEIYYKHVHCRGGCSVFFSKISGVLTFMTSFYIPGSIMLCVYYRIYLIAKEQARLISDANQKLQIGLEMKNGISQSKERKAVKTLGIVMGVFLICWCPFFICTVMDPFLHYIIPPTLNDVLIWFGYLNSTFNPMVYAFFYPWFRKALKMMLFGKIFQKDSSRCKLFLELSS
Assay: [3H]-cAMP accumulation (column assay) in HEK-293 cells transfected with hTAAR1; no effect in mock cells
Assay type: cell-based

SMILES	EC50	EC50 (read-out: EC50)
COc1cc(CCN)ccc1O [3-MT, 3-methoxytyramine]	700 ± 180 nM	
NCCc1ccc(O)cc1 [tyramine]		320 ± 100 nM
